Results published in PMC12040169 (PLOS Biology, 2025).

Test: in vitro
Settings: human, hela cells, % viability

Row | Structure (SMILES) | viability at 28.5 h, 10 µM
1 | O=C(OCc1ccccc1)N1CCN(C(=O)c2cc3cc(Br)ccc3[nH]2)CC1 [CBK154991] | 97.5%
2 | O=C(NC[C@H]1O[C@@H](CC(=O)N2CCN(c3ccccn3)CC2)[C@H](O)[C@@H]1O)c1ccco1 [CBK288923] | 102%
3 | O=C(Nc1ccc(F)cc1)OCC1COc2ccccc2C1 (stereo not drawn) [CBK017146] | 85.5%
4 | Clc1ccc(OCc2nnn[nH]2)c(C2CCCCC2)c1 [CBK270035] | 103%
5 | CC(O)CNCCNCc1cccs1 (stereo not drawn) [CBK278279C] | 109%
6 | Cn1c(=O)c2c(nc(N3CCN(c4cccc(Cl)c4)CC3)n2CC(=O)O)n(C)c1=O [CBK286803] | 87.7%
7 | COCCCNC(=O)COc1cc(C)ccc1C [CBK264625] | 88.4%
8 | Cn1c(=O)oc2cc(S(=O)(=O)NCCC(=O)O)ccc21 [CBK267567] | 89.3%
9 | CC1(C)CC(=O)C=C(C(=O)Nc2c(F)cc(F)cc2OC2CCNCC2)O1 [CBK050332T] | 110%
10 | CCN(CC)C(=O)CNS(=O)(=O)c1ccc(C)cc1 [CBK034491] | 103%
11 | Cc1cn(C2CC(O)C(C3N(c4ccccc4)CCN3c3ccccc3)O2)c(=O)[nH]c1=O (stereo not drawn) [CBK201232] | 99.2%
12 | Cc1ccc(-c2nnc(CNC(=O)c3cccc(Cl)c3)o2)s1 [CBK284646] | 79.1%
13 | COC(=O)c1ccc2c(=O)n(CCc3ccc(S(N)(=O)=O)cc3)c(=S)[nH]c2c1 [CBK268238] | 91.2%
14 | Cc1nn(C)c(C)c1NC(=O)c1ccc(S(=O)(=O)N(C)C)cc1 [CBK266059] | 93.8%
15 | Cc1ccc(Cc2cnc(NC(=O)CN3CCCCC3)s2)cc1Cl [CBK307299] | 84.9%
16 | CC(C(=O)NC1(C#N)CCCCC1)N1CCOC(Cn2cncn2)C1 (stereo not drawn) [CBK305359] | 101%
17 | Cc1ccc(SCC(=O)Nc2cc(C)on2)cc1 [CBK057070] | 115%
18 | CC1(C)COC(=O)N1C1CCN(C(=O)c2cncc(Br)c2)CC1 [CBK038781] | 81.6%
19 | c1ccc(-n2ncc3c(N4CCCC4)ncnc32)cc1 [CBK287357] | 86.6%
20 | CC(=O)Nc1nc(-c2ccccc2C)ccc1C(=O)NC1CCCCC1 [CBK106327] | 99%
21 | O=C(CCC(=O)OCN1C(=O)c2ccccc2C1=O)Nc1ccc2ccccc2c1 [CBK265277] | 108%

Row | Structure (SMILES) | viability at 28.5 h, 10 µM
22 | COc1cc(C(C[N+](=O)[O-])c2c(C)[nH]c3ccccc23)ccc1O (stereo not drawn) [CBK115317] | 82.9%
23 | CC(C)(C)CC(=O)N1C[C@@H]2C[C@H](C1)c1ccc(NS(=O)(=O)c3cccs3)c(=O)n1C2 [CBK288708] | 80.6%
24 | Cn1c(C2CC2)nc2c1CCN(Cc1cc(=O)n(C)c(=O)n1C)C2 [CBK304025] | 115%
25 | CCC1CCCCN1C(=O)c1ccc(NC2CC2)nc1 (stereo not drawn) [CBK304815] | 92.2%
26 | Cc1cc(Br)ccc1C(=O)NCCc1c[nH]c2ccc(Cl)cc12 [CBK159771] | 91%
27 | Cc1c(O)ccc2c(COC(=O)C3(c4ccccc4)CCCC3)cc(=O)oc12 [CBK295622] | 98.8%
28 | O=C(c1ccco1)N1CCC[C@@H]1[C@@H](O)c1cccs1 [CBK284291] | 80.7%
29 | c1cc(-c2ccc(Nc3ccc(N4CCOCC4)cc3)nc2)cs1 [CBK036844] | 97.6%
30 | O=C(CO)N1CC2(CCN(CC3COc4ccccc4O3)CC2)c2ccccc21 (stereo not drawn) [CBK143951] | 105%
31 | Cc1cc(C(=O)O)c(NC(=O)c2cccc(Cl)c2)s1 [CBK126813] | 100%
32 | CCCN1C(=O)[C@@H]2[C@@H](CCN2C(=O)C(=O)O)N(Cc2cccs2)C1=O [CBK289277] | 93.1%
33 | CC1CN(S(=O)(=O)N2CCOCC2)CCN1S(=O)(=O)N1CCOCC1 (stereo not drawn) [CBK269011] | 101%
34 | CCc1nc2ccc(C(=O)NCCN(C)C)cn2c1N(CC)CC(=O)N(C)C [CBK146762] | 89.6%
35 | CN1CCN(c2ccc(/C=c3\sc4nc5ccccc5n4c3=O)cc2[N+](=O)[O-])CC1 [CBK263048] | 89.3%
36 | CCCCS(=O)(=O)N1CCN(CCc2ccccc2)CC1 [CBK270316] | 87.3%
37 | O=C1NCCNC(=O)C2(C/C=C/COc3ccccc31)CCN(C(=O)CCN1CCCCC1)CC2 [CBK292026] | 110%
38 | CCOC(=O)c1cccc(NS(=O)(=O)c2ccc(-c3ccccc3)cc2)c1 [CBK034341] | 92.8%
39 | Cc1c(-c2csc(CC#N)n2)sc2ccccc12 [CBK020828] | 65.6%
40 | CC1CCCN(Cc2c(C3CCCNC3)[nH]c3ncccc23)C1 (stereo not drawn) [CBK285112] | 70.3%
41 | COc1cccc(C2Nc3ccc4ccccc4c3C3=C2C(=O)CC(C)(C)C3)c1OCC(=O)O (stereo not drawn) [CBK263045] | 89.8%
42 | COc1ccc(-c2nnc(SCC(=O)Nc3cc(C(C)(C)C)no3)n2C2CCCCC2)cc1OC [CBK295131] | 105%

Row | Structure (SMILES) | viability at 28.5 h, 10 µM
43 | Cc1ccc2[nH]c(C)c(CC(=O)N(C)CCN3CCCCC3)c2c1 [CBK282749] | 87.8%
44 | Cc1cc(NC(=O)C(C)N(C)CCOc2ccccc2Cl)no1 (stereo not drawn) [CBK304466] | 107%
45 | CC(C)[C@@H](CO)Nc1cncc(-c2ccc3ccccc3c2)n1 [CBK065546] | 100%
46 | N#Cc1c(NC(=O)CSc2nc3ccccc3s2)oc(-c2ccccc2)c1-c1ccccc1 [CBK269019] | 97%
47 | COc1ccc(N2CCN(c3cc(C)nc4cc(-c5nccn5C)nn34)CC2)cc1 [CBK286187] | 87.8%
48 | CCOC(=O)N1CCC(NC(=O)c2cnn3c(C)c(Cc4ccccc4)c(C)nc23)CC1 [CBK160293] | 90.7%
49 | Nc1ncc(Br)nc1N[C@@H](CO)c1ccccc1 [CBK074321] | 102%
50 | CN(Cc1ccc(-c2ccc(S(C)(=O)=O)cc2)cn1)C1CCN(C(=O)CC(C)(C)O)CC1 [CBK165684T] | 93.1%
51 | COc1ccc(S(=O)(=O)N2CCN(Cc3cc(OC)c(OC)c(OC)c3)CC2)cc1 [CBK263330] | 89.3%
52 | Cn1c(COc2ccc(Cl)cc2Cl)nnc1SCC(=O)N1c2ccccc2SC2C=CC=CC21 (stereo not drawn) [CBK268359] | 103%
53 | COc1cccc(-c2ccc3ccc(N)nc3n2)c1 [CBK061640] | 99%
54 | CCN(c1ccccc1C(=O)O)S(=O)(=O)/C=C/c1ccccc1 [CBK287236] | 96.7%
55 | Cc1nn(C)cc1S(=O)(=O)N1CCn2cccc2C1C(C)C (stereo not drawn) [CBK282787] | 99.8%
56 | CCc1nnc(SCC(=O)Nc2cccc(OC)c2)[nH]1 [CBK270226] | 93.7%
57 | OC(CNc1nccnc1-c1ccco1)COc1ccccc1 (stereo not drawn) [CBK036862] | 96.7%
58 | COc1ccccc1-c1cnc2[nH]c(=O)n(CC(C)(C)CO)c2n1 [CBK064690] | 90.2%
59 | COc1ccc(C(=O)N2CCC3(CCN(CCCCC4NC(=O)NC4=O)C3)C2)cc1OC (stereo not drawn) [CBK132169] | 83%
60 | N=C1OC2CSCC2N1C(=O)Cc1ccccc1Cl (stereo not drawn) [CBK284516] | 106%
61 | O=C(CSc1nc[nH]n1)Nc1nsc(-c2ccc(Cl)cc2)n1 [CBK267273] | 110%
62 | COc1ccc(-c2nc(NC(=O)CSc3n[nH]c(N)n3)ns2)cc1 [CBK267236] | 81.8%

Same assay, conditions: human, hela cells, % viability, bulk resorufin, single well

Row | Structure (SMILES) | viability at 28.5 h, 10 µM
63 | COc1cc(C(=O)N2CCC(N3C(=O)Cc4ccccc43)CC2)ccc1C [CBK155465] | 84.2%
